What was measured:
[1] = system: HCC1569; assay: Antiproliferative activity against human HCC1569 cells assessed as reduction in cell viability incubated for 48 hrs by MTT assay; assay type: functional, cell-based; settings: HCC1569, 48 h
[2] = molecular target: T1, Membrane-associated tyrosine- and threonine-specific cdc2-inhibitory kinase (Homo sapiens, UniProt Q99640); assay: Inhibition of PKMYT1 (unknown origin)
T1 sequence (Q99640 whole entry): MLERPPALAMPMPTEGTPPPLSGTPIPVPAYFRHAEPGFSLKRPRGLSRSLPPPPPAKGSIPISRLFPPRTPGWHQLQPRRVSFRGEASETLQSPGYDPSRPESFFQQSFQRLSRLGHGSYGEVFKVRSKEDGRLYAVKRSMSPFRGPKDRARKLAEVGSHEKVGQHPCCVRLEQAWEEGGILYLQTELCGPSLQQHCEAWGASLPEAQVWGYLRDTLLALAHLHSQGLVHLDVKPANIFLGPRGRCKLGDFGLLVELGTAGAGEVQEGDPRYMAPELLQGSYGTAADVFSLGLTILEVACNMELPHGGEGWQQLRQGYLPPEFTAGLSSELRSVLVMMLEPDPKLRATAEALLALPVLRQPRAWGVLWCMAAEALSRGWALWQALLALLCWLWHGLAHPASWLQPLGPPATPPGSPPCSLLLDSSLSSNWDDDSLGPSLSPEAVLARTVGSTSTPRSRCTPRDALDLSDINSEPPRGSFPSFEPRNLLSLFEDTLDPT

[3] = molecular target: T1, Membrane-associated tyrosine- and threonine-specific cdc2-inhibitory kinase; assay: Inhibition of PKMYT1 (unknown origin) extracted from insect cells by TR-FRET analysis; assay type: cell-free, Insect cell
[4] = molecular target: T1, Membrane-associated tyrosine- and threonine-specific cdc2-inhibitory kinase; assay: Binding affinity to PKMYT1 (unknown origin) assessed as dissociation constant
[5] = molecular target: T2, Wee1-like protein kinase (Homo sapiens, UniProt P30291); assay: Binding affinity to WEE1 (unknown origin) assessed as dissociation constant
T2 sequence (P30291 whole entry): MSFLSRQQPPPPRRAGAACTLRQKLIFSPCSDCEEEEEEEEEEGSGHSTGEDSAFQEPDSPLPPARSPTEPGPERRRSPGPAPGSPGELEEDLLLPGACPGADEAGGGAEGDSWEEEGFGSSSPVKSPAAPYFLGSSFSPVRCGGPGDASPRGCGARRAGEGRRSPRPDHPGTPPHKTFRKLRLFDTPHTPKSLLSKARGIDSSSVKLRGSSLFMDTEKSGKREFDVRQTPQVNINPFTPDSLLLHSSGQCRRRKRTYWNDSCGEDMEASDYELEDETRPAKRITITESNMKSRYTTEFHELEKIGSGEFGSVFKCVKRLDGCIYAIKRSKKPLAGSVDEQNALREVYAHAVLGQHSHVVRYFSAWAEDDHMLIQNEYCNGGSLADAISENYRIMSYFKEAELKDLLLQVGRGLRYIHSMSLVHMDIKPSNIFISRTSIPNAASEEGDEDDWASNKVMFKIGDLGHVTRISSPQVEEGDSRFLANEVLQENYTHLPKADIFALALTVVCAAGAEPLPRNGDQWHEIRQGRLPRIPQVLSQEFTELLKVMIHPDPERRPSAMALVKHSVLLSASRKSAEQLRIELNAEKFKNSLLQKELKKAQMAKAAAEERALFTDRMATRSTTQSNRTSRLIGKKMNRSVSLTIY

[6] = Clearance in CD-1 mouse at 2 mg/kg, iv by LC-MS/MS analysis; assay type: ADME, organism-based; settings: in vivo
[7] = Half life in […] at 2 mg/kg, iv; assay type: ADME, organism-based; settings: in vivo
[8] = system: MIA PaCa-2; assay: Antiproliferative activity against human MIA PaCa-2 cells assessed as reduction in cell viability incubated for 48 hrs by MTT assay; assay type: functional, cell-based; settings: MIA PaCa-2, 48 h
[9] = molecular target: T2, Wee1-like protein kinase; assay: Inhibition of WEE1 (unknown origin)
[10] = molecular target: T1, Membrane-associated tyrosine- and threonine-specific cdc2-inhibitory kinase; assay: Inhibition of PKMYT1 (unknown origin) by TR-FRET analysis

Cc1nc2c3c(c(N)n(-c4c(C)ccc(O)c4C)c3n1)C(=O)Nc1ccccc1-2
IC50 [1]: 22 nM

Cc1ncc(-c2[nH]c3ncc(-c4c(C)ccc(O)c4C)nc3c2Cl)cn1
IC50 [2]: ≤ 10 nM

Cc1ccc(O)c(C)c1-n1c(N)c2c3c(ncnc31)C=C(c1cnn(C)c1)NC2=O
IC50 [1]: 8.6 nM

Cc1ccc(O)c(C)c1C1C(N)=C(C(N)=O)C2C=C(C(C)C)C=NN21 (stereo not given)
IC50 [2]: < 10 nM

CC1=CC2C(C(N)=O)=C(N)C(c3c(C)ccc(O)c3C)N2N=C1 (stereo not given)
IC50 [2]: < 10 nM

COc1cc2ncnc(Nc3cccc(Cl)c3)c2cc1OC [TYRPHOSTIN AG-1478]
IC50 [3]: 7200 nM

Cc1ccc(O)c(C)c1-n1c2ncc(N3CCOCC3)nc2c2c(N)ncnc21
IC50 [1]: < 5 nM
IC50 [2]: < 100 nM

CN(C)C(=O)NCc1cc(Nc2ncc3cc(-c4c(Cl)cccc4Cl)c(=O)n(C)c3n2)nnc1OCCN1CCS(=O)(=O)CC1
Kd [4]: ≤ 10 nM
Kd [5]: > 500 nM

C[C@@H](O)CC[C@H](C)Oc1ccc(Nc2ncc3cc(-c4c(Cl)cccc4Cl)c(=O)n(C)c3n2)nn1
Kd [4]: ≤ 10 nM
Kd [5]: > 500 nM

Cc1cc2c(C(N)=O)c(N)n(-c3c(C)c(O)cc(F)c3C)c2nc1C
clearance [6]: 94.4 mL/min/kg
half-life [7]: 0.56 h
IC50 [8]: 4320 nM
IC50 [2]: ≤ 200 nM

COc1ccnc2c(-c3c(C)ccc(O)c3C)c(N)c(C(N)=O)cc12
IC50 [2]: < 50 nM

CC1=CC2C(C(N)=O)=C(N)C(c3c(C)ccc(O)c3C)N2N=C1C (stereo not given)
IC50 [2]: < 10 nM

Cc1c(O)cccc1-c1c(N)c(C(N)=O)nc2cccnc12
IC50 [2]: < 50 nM

Cc1cc2c(C(N)=O)c(N)n(-c3c(C)ccc(O)c3C)c2nc1C [LUNRESERTIB]
clearance [6]: 46.5 mL/min/kg
half-life [7]: 3.32 h
IC50 [8]: 9220 nM

Cc1ccc(-c2cc3c(Cl)c(-c4c(C)ccc(O)c4C)cnc3[nH]2)cn1
IC50 [2]: ≤ 10 nM

Cc1ccc(O)c(C)c1-c1c(N)c(C(N)=O)nc2nccnc12
IC50 [2]: < 50 nM

Cc1ccc(O)c(C)c1-c1c(N)c(C(N)=O)nc2cccnc12
IC50 [2]: < 50 nM

CCOc1cc2ncc(C#N)c(Nc3ccc(F)c(Cl)c3)c2cc1NC(=O)/C=C\CN(C)C
IC50 [3]: 2900 nM

Cc1ccc(O)c(C)c1-n1nc(-c2nccs2)c(C(N)=O)c1N
IC50 [9]: 500 nM
IC50 [2]: ≤ 10 nM

CCn1ccc(Oc2ccc(Nc3ncc4cc(-c5c(Cl)cccc5Cl)c(=O)n(C)c4n3)nc2)n1
Kd [4]: ≤ 10 nM
Kd [5]: > 500 nM

Cc1ccc(O)c(C)c1-n1c(N)c2c3c(c(C)ncc31)CCNC2=O
IC50 [9]: > 10000 nM
IC50 [10]: 10 nM

CC1=NN2C(C=C1C1CC1)C(C(N)=O)=C(N)C2c1c(C)ccc(O)c1C (stereo not given)
IC50 [2]: < 10 nM

Cc1nc2c3c(c(N)n(-c4c(C)ccc(O)c4C)c3n1)C(=O)NCC2
IC50 [10]: ≤ 10 nM

Cc1ccc(O)c(C)c1-n1c(N)c(C(N)=O)c2c(=O)n(CF)ccc21
IC50 [10]: 1.5 nM

Cc1c(O)cccc1-c1c(N)c(C(N)=O)nc2cccc(C#N)c12
IC50 [2]: < 50 nM

COc1ccnc2c(-c3cccc(O)c3C)c(N)c(C(N)=O)cc12
IC50 [2]: < 50 nM

CSc1ncc2c(C(N)=O)c(N)n(-c3c(C)ccc(O)c3C)c2n1
IC50 [2]: < 100 nM

Cc1ccc(O)c(C)c1-n1c(N)c2c3c(c(C)cnc31)CCNC2=O
IC50 [10]: ≤ 10 nM

COc1ccc(Nc2ncc3cc(-c4c(C)ccc(O)c4C)c(=O)n(C)c3n2)nc1
Kd [4]: ≤ 10 nM
Kd [5]: > 500 nM

Cc1ccc(O)c(C)c1-c1cnc2[nH]c(-c3ccc(N4CCN(C)CC4)nc3C)nc2c1
IC50 [2]: 500 nM

Cc1ccc(O)c(C)c1-c1cc2cnc(Nc3ccccn3)nc2n(C)c1=O
Kd [4]: ≤ 10 nM
Kd [5]: > 500 nM

Cc1c(O)cccc1-c1c(N)c(C(N)=O)cc2nccc(C#N)c12
IC50 [2]: < 50 nM

Cc1ccc(O)c(C)c1-n1c(N)c2c3c(ncnc31)-c1ccccc1NC2=O
IC50 [1]: 42 nM

Cc1ccc(O)c(C)c1-n1c(N)c(C(N)=O)c2cc(NC(N)=O)cnc21
IC50 [2]: < 20 nM

Cc1cc2c3c(N)ncnc3n(-c3c(C)ccc(O)c3C)c2nc1C
IC50 [1]: < 5 nM
IC50 [2]: < 100 nM

Cc1cc(Nc2ncc3cc(-c4c(Cl)cccc4Cl)c(=O)n(C)c3n2)ccc1F
IC50 [10]: 7.2 nM

Source: ChEMBL document CHEMBL6078629, “Targeting Protein Kinase, Membrane-Associated Tyrosine/Threonine 1 (PKMYT1) for Precision Cancer Therapy: From Discovery to Clinical Trial” (J Med Chem, 2024)
